This note sets out measurements from PMC8778187, “A New Oxygen Containing Pyclen-Type Ligand as a Manganese(II) Binder for MRI and ^52Mn PET Applications: Equilibrium, Kinetic, Relaxometric, Structural and Radiochemical Studies” (Molecules, 2022).

A short description of this data set: 17O NMR and NMRD measurements (water exchange, rotation, hydration number). In kind it is physicochemical. The protocol: The relaxivity of paramagnetic metal complexes is governed by several parameters, including the water exchange rate (kex), the rotational correlation time (τR), and the number of inner sphere water molecules (q). In order to obtain information for these parameters, temperature dependent ^17O NMR measurements (9.4 T) and nuclear magnetic relaxation dispersion (NMRD) experiments were carried out in the frequency range of 0.01–80 MHz, at 3 different temperatures (25, 37, and 50 °C). Since numerous physico-chemical parameters determine the relaxivity, the independent assessment of some of the parameters is essential for the correct characterization. The variable temperature ^17O NMR measurements can deliver information about kex and τR via the transverse (1/T2) and the longitudinal (1/T1) ^17O relaxation rates, respectively, while the ^17O chemical shifts (Δω) depend on q. Therefore, the transverse and longitudinal relaxation rates and chemical shifts for a [Mn(3,9-OPC2A)] complex and a diamagnetic reference sample (HClO4, pH = 3.3) have been determined in the aqueous solution.
The ^17O 1/T2r values and the NMRD data have been analyzed simultaneously by the Swift–Connick equations [31], as well as by the Solomon–Bloembergen–Morgan (SMB) and Freed models (see Supporting Information). In this calculation, the water exchange rate, kex^298; its activation enthalpy and entropy, ΔH^‡ and ΔS^‡; the rotational correlational time, τR; its activation energy, ER; the square of the zero-field splitting energy (ZFS), Δ^2; and the correlation time of its modulation, τv, have been determined and listed in Table 5, together with corresponding values of other complexes for comparison. As a result of the high number of parameters involved in the calculations, some have to be set to reasonable estimates based on literature data. Thus, the scalar coupling constant, A/ħO, is set to 33 × 10^6 rad s^−1, the distance between the metal ion, and the inner and outer sphere water protons are fixed to rMnH = 2.83 Å and aMnH = 3.6 Å, respectively; the diffusion coefficient and its activation energy are fixed to DMnH = 23 × 10^−10 m^2s^−1 and EMnH = 18 kJmol^−1, and the activation energy of the modulation of the zero-field-splitting, Ev to 1.0 kJmol^−1.
The hydration number has been fixed to q = 1, based on the relaxivity value measured at 20 MHz (r1 = 3.09 mM^−1s^−1), and on the value, 0.97 ± 0.2, determined for q using the method proposed by Gale et al..
A Bruker Avance 400 (9.4 T) spectrometer was used to measure the longitudinal (1/T1) and transverse (1/T2) relaxation rates, and the chemical shifts of an aqueous solution of the [Mn(3,9-OPC2A)] complex (pH = 7.4, 1.3 mM) and a diamagnetic reference (HClO4 acidified water, pH = 3.3) in the temperature range of 273–348 K. The temperature calibration was performed using literature protocols relying on ethylene glycol and methanol standards. The 1/T1 and 1/T2 values were determined by the inversion−recovery and the Carr−Purcell−Meiboom−Gill spin echo technique, respectively. To avoid susceptibility corrections of the chemical shifts, a glass sphere fitted into a 10 mm NMR tube was used to contain the samples. ^17O enriched water (10% H2^17O, CortecNet) was added to the solutions to improve sensitivity (circa 1% enrichment). Proton NMRD profiles of the [Mn(3,9-OPC2A)] complex (1.00 mM, pH = 7.4) were recorded in aqueous solution on a Stelar SMARTracer Fast Field Cycling relaxometer (0.01−10 MHz), and a Bruker WP80 NMR electromagnet adapted to variable field measurements (20−80 MHz) and controlled by a SMARTracer PC-NMR console (Stelar s.r.l., Mede, Italy). The temperature was monitored by a VTC91 temperature control unit and maintained by a gas flow. The temperature was determined by previous calibration with a Pt resistance temperature probe. […]

As for `O=C([O-])CN1CCOCCN(CC(=O)[O-])Cc2cccc(n2)C1.[Mn+2]` [[Mn(3,9-OPC2A)]], the “r1^298_20 MHz” value (20 MHz, 298 K) worked out at 3.09 mM⁻¹ s⁻¹. This compound yielded an ER (activation energy of rotation) of 14.8 ± 0.6 kJmol^−1. Besides, where the note is “activation enthalpy of water exchange”, the “ΔH^‡” value was 28.5 ± 1.7 kJmol^−1. Besides, the “ΔS^‡” value (activation entropy of water exchange) is on record as −1.9 ± 0.8 JK^−1mol^−1. Moreover, the “τv^298” value (correlation time of ZFS modulation) is listed as 19.3 ± 3.0 ps. In addition, the “q (method proposed by Gale et al.)” value (hydration number from 17O NMR line widths) was 0.97 ± 0.2. For the setting “hydration number, fixed during the fitting procedure”, the q stood at 1. Moreover, for the setting “rotational correlation time”, the “τR^298” value turned out to be 40.0 ± 1.1 ps. Also, the “Δ^2” value (square of the zero-field splitting energy) is listed as 17.8 ± 3.6 10^18s^−2. Besides, the “kex^298” value reads like this: (water exchange rate with bulk solvent) 5.3 ± 0.4 × 10^7 s^−1; (water exchange rate, fit of 17O NMR and NMRD data) 5.3 ± 0.4 10^7s^−1.
